Assay results: patent publication US9650404B2 (RESEARCH FOUNDATION OF THE CITY UNIVERSITY OF NEW YORK, priority 2010, dated 2017)
≈ marks a conversion by molar mass, not a printed value. Entries after “also recorded” stand apart in the source; their conditions may differ.

How the values were obtained:
[1] = target: T1, Amyloid βeta (Aβeta) fragment 25-35 (Homo sapiens, UniProt P05067); assay: Dissolution of Amyloid beta fragments (transmission electron microscopy); format: biochemical; conditions: for concentration at which the compound works in dissolving amyloid aggregates: Aβeta 25-35 50 μg/ml, 37° C., 6 days
T1 construct: Amyloid βeta (Aβeta) fragment 25-35 (Sigma A-4559); purchased Sigma A-4559
Description: Amyloid βeta (Aβeta) fragment 25-35 (Sigma A-4559) was diluted in water to a stock of 1 mg/ml. […] Samples were incubated at 37° C. for 6 days. Aggregation of the protein fragment was determined using transmission electron microscopy. 200 mesh carbon coated grids (Electron Microscopy Sciences) were used and prepared for negative staining by adding 5 μl of incubation mixture to the grid surface for one minute, followed by drying the grid with filter paper and contrasting with 5 μl of freshly filtered 2% phosphotungstic acid (pH=7.2) for one minute. Once grids were dry, examination was done using the FEI Tecnai Spirit at the College of Staten Island's Advanced Imaging Facility. Micrographs were captured using an AMT CCD camera.

[2] = Antioxidant potentiality assay by linoleic acid peroxidation (thiocyanide method); conditions: in water, aqueous medium; FIG. 1
Description: 0.28 gm of linoleic acid, 0.28 gm of tween 40 as emulsifier and 50 ml of phosphate buffer (0.2 M, pH 7) were used to prepare a linoleic acid emulsion. The curcuminoids (5 mg per ml) were dissolved in water and 0.5 ml of each one of them was pipetted out into different test-tubes. Then 2.5 ml of linoleic acid emulsion was added to each one of them followed by the addition of 2.5 ml of phosphate buffer. All the tubes were incubated at 37° C. for 7 days. The mixture prepared as above without test sample was the control one. At the regular interval of 24 hours, 0.1 ml of the aliquots were drawn out of the incubation mixture and mixed with 5 ml of 75% ethanol, 0.1 ml of 30% ammonium thiocyanate and 0.1 ml of 20 mM ferrous chloride in 3.5% HCl. The tubes were allowed to stand in room temperature for 3 minutes. Spectrophotometric analysis was done at 500 nm. All the tests were carried out in duplicate and averaged. Anoxidant activity=[1-increase in absorbance of the sample/increase in absorbance of control]*100.

[3] = Solubility study via UV-Vis spectroscopy (direct solubility in water)
[4] = test system: cultured hippocampal slices (normal brain tissue); assay: MTT cell viability assay on cultured hippocampal slices; format: cell-based, mouse; conditions: for cell viability (MTT) versus control: overnight, hippocampal slices
Description: To assess the viability of the normal brain tissue in presence of the sweet curry MTT assay on cultured hippocampal slices were performed.
Mouse pups of specific ages were anesthetized with ketamine (100 mg/kg) and decapitated. Under sterile conditions, the brains were isolated and then cut at 60° from the longitudinal fissure at the top using a hippocampus-dissecting tool to expose the hippocampus. The hemispheres containing the hippocampi were then placed in modified Gey's balanced salt solution (mGBSS) at 4° C. for 30-40 minutes while bubbling a mixture of 95% O2 and 5% CO2. Individual hippocampi were isolated using dissection tool and then […] thick transverse slices were prepared using a tissue chopper (Stoelting, Wood Dale, Ill., USA). The slices were placed in ice cold mGBSS and inspected using a dissection microscope for the presence of uninterrupted bright transparent neuronal layers characteristic of the hippocampal structure. Only such slices were placed on Millicell CM filters (Millipore, Bedford, Mass., USA). The filters were placed in a six well dish with 1 ml of medium in each well. The slices were kept on high K^+ culture medium (25% horse serum, 50% Basal Essential Media-Eagles, 25% Eagle's Balanced Salt Solution (EBSS), 25 mM Na-HEPES, 1 mM Glutamine, 28 mM Glucose, pH 7.2) for the first two days. After incubation at 32° C. in a 5% CO2 atmosphere, the culture medium was changed to physiological K^+ slice culture medium (20% dialyzed fetal bovine serum, 5% Basal Essential Media-Eagles, and EBSS modified to adjust the K^+ concentration to 2.66 mM). After 20% dialyzed serum treatment for two days and the slices were placed in 5% serum medium (same medium as above but with 5% serum) for two days.
Hippocampal slices from adult mice brain were cultured as described by Mehta et al (2007). After six days in vitro the slices were treated with different concentrations of the sweet curry (i.e., 8 nM, 8 μM and 80 μM respectively) overnight along with the slices treated with the carrier as control.
After the treatment with sweet curry, slices from each treatment group were placed in 400 μl PBS in one well of 48-well plate and then treated with 200 μl of MTT (5 mg/ml) per well with gentle mixing at 37° C. for 2 hours. The slices were triturated to homogenize with the help of a micropipette. After that 800 μl of lysis buffer (20% SDS, 50% dimethylformamide) was added to each well and the plate was sealed and incubated overnight at 37° C. with gentle mixing. Now 100 μl mix from each well was taken in respective wells of a 96 well plate in triplicates and absorbance was measured at 570 nm using a plate reader. Results obtained were normalized to the total protein content and then expressed as percent carrier-treated samples.

With `COc1cc(/C=C/C(=O)CC(=O)/C=C/c2ccc(O)c(OC)c2)ccc1O` [curcumin, (1E,6E)-1,7-bis(4-hydroxy-3-methoxyphenyl)hepta-1,6-diene 3,5-dione, reference compound] the “concentration at which the compound works in dissolving amyloid aggregates” value ([1]; electron micrographs) was 8 µM.
With `COc1cc(/C=C/C(=O)CC(=O)/C=C/c2ccc(OCc3cn(CCOCCOCCOC4OC(CO)C(O)C(O)C4O)nn3)c(OC)c2)ccc1O` (centres unmarked) [Compound 1d, curcumin-“Clicked”-mono-galactose] the “concentration at which the compound works in dissolving amyloid aggregates” value ([1]; electron micrographs) was 8 nmol, the “effectiveness in dissolving amyloid aggregates” value ([1]; electron micrographs) was “significantly more effective than curcumin in dissolving amyloid aggregates” and the “effectiveness in dissolving amyloid aggregates relative to curcumin” value ([1]; ratio of working concentrations) was 1000 times. For the same molecule, the “anti-oxidant potential (AOP), comparison in words” value [2] was “much better antioxidant than Curcumin 1 as well as other curcumin derivatives (1a,1b)”, the solubility ([3]; deionized water, water, thermodynamic from solid) was 6 mM (≈ 4460 µg/mL) and the “solubility in water relative to curcumin and derivatives” value ([3]; water (plasma model), listed as Sweet curry 1d) was “far superior solubility compared to curcumin in water; also recorded: superiorly soluble in water compared to Curcumin and derivatives 1a and 1b”. The “effect on normal brain tissue (viability), conclusion” value ([4]; 8 nM to 80 μM) was “no harmful effect on the normal brain tissue”, the “cell viability (MTT) versus control” value ([4]; 8 nM) was “near the control samples” and the “cell viability (MTT) versus control” value ([4]; 8 μM) was “near the control samples”. For the same molecule, the “cell viability (MTT) versus control” value ([4]; 80 μM) was “a little higher than the control samples”.
